This assay has as its target T1, Stimulator of interferon genes protein [R71H,G230A,H232R,R293Q] (Homo sapiens, UniProt Q86WV6, G230A/H232R/R293Q/R71H).
T1 construct: gene STING1
Description: STING Biochemical [3H]cGAMP Competition Assay. An excerpt: The binding assay employs STING receptor obtained from Hi-Five cell membranes overexpressing full-length HAQ STING prepared in-house and tritiated cGAMP ligand also purified in-house.

T1 sequence (Q86WV6 whole entry R71H/G230A/H232R/R293Q, looked up): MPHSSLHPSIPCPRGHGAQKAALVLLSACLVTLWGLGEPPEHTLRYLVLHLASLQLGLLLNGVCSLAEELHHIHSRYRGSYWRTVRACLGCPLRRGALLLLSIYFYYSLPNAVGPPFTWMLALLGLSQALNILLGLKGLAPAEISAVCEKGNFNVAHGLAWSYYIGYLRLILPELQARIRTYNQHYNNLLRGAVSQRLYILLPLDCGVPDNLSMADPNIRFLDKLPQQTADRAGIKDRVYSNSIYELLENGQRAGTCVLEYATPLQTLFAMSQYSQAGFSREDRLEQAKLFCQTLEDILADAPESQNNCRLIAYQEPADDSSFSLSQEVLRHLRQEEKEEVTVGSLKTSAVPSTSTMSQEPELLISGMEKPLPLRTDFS

As a reminder, the EC50 is the concentration needed to bring the measured effect to its halfway point. Lower therefore signals greater potency. In turn, `COc1cc2cc(C(=O)CCC(=O)OC(C)(C)C)sc2cc1OC` [US10730849, Example 12] came in with an EC50 of 5.99 µM.

The values above are taken from BindingDB's records for patent US10730849 (Merck Sharp & Dohme Corp., 2020).
